Measured values from the NIST ThermoML archive (doi:10.1021/acs.jced.9b00507).
± gives the expanded uncertainty stated by the source.

Assay: xn = mol fraction of the nth substance listed
Details: 100 kPa, Liquid; for viscosity: Concentric cylinders viscometry; for mass density: Vibrating tube method

## CCCCCCn1cc[n+](C)c1.O=[N+]([O-])[O-] [1-hexyl-3-methylimidazolium nitrate] + CCCCCCCCCCO
293.15 K, x1 = 0.0818
  viscosity: 18.62 ± 1.5 mPa·s
  mass density: 855.4 ± 1.2 kg/m3
293.15 K, x1 = 0.1583
  viscosity: 24.27 ± 1.9 mPa·s
  mass density: 879.2 ± 1.2 kg/m3
293.15 K, x1 = 0.2414
  viscosity: 33.34 ± 2.7 mPa·s
  mass density: 904.7 ± 1.2 kg/m3
293.15 K, x1 = 0.3482
  viscosity: 50.7 ± 4.1 mPa·s
  mass density: 937.1 ± 1.2 kg/m3
293.15 K, x1 = 0.4414
  viscosity: 73.79 ± 6 mPa·s
  mass density: 964.8 ± 1.2 kg/m3
293.15 K, x1 = 0.5593
  viscosity: 119.12 ± 9.7 mPa·s
  mass density: 999.2 ± 1.2 kg/m3
293.15 K, x1 = 0.6481
  viscosity: 173.38 ± 14 mPa·s
  mass density: 1024.6 ± 1.2 kg/m3
293.15 K, x1 = 0.7414
  viscosity: 261.82 ± 22 mPa·s
  mass density: 1050.8 ± 1.3 kg/m3
293.15 K, x1 = 0.8496
  viscosity: 419.76 ± 36 mPa·s
  mass density: 1080.4 ± 1.4 kg/m3
293.15 K, x1 = 0.9402
  viscosity: 625.17 ± 54 mPa·s
  mass density: 1104.7 ± 1.4 kg/m3
293.15 K, x1 = 1
  viscosity: 804.17 ± 70 mPa·s
  mass density: 1120.3 ± 1.4 kg/m3
298.15 K, x1 = 0.0818
  viscosity: 15 ± 1.2 mPa·s
  mass density: 851.9 ± 1.2 kg/m3
298.15 K, x1 = 0.1583
  viscosity: 18.75 ± 1.5 mPa·s
  mass density: 875.7 ± 1.2 kg/m3
298.15 K, x1 = 0.2414
  viscosity: 23.93 ± 1.9 mPa·s
  mass density: 901.3 ± 1.2 kg/m3
298.15 K, x1 = 0.3482
  viscosity: 33.81 ± 2.7 mPa·s
  mass density: 933.6 ± 1.2 kg/m3
298.15 K, x1 = 0.4414
  viscosity: 47.42 ± 3.8 mPa·s
  mass density: 961.4 ± 1.2 kg/m3
298.15 K, x1 = 0.5593
  viscosity: 74.3 ± 6 mPa·s
  mass density: 995.8 ± 1.2 kg/m3
298.15 K, x1 = 0.6481
  viscosity: 111.69 ± 9.1 mPa·s
  mass density: 1021.3 ± 1.2 kg/m3
298.15 K, x1 = 0.7414
  viscosity: 171 ± 14 mPa·s
  mass density: 1047.5 ± 1.3 kg/m3
298.15 K, x1 = 0.8496
  viscosity: 276.06 ± 23 mPa·s
  mass density: 1077.3 ± 1.4 kg/m3
298.15 K, x1 = 0.9402
  viscosity: 417.45 ± 36 mPa·s
  mass density: 1101.7 ± 1.4 kg/m3
298.15 K, x1 = 1
  viscosity: 545.25 ± 47 mPa·s
  mass density: 1117.5 ± 1.4 kg/m3
303.15 K, x1 = 0.0818
  viscosity: 11.86 ± 0.95 mPa·s
  mass density: 848.4 ± 1.2 kg/m3
303.15 K, x1 = 0.1583
  viscosity: 14.39 ± 1.2 mPa·s
  mass density: 872.2 ± 1.2 kg/m3
303.15 K, x1 = 0.2414
  viscosity: 17.58 ± 1.4 mPa·s
  mass density: 897.7 ± 1.2 kg/m3
303.15 K, x1 = 0.3482
  viscosity: 22.91 ± 1.8 mPa·s
  mass density: 930 ± 1.2 kg/m3
303.15 K, x1 = 0.4414
  viscosity: 30.27 ± 2.4 mPa·s
  mass density: 957.8 ± 1.2 kg/m3
303.15 K, x1 = 0.5593
  viscosity: 45.39 ± 3.7 mPa·s
  mass density: 992.2 ± 1.2 kg/m3
303.15 K, x1 = 0.6481
  viscosity: 65.77 ± 5.3 mPa·s
  mass density: 1017.7 ± 1.2 kg/m3
303.15 K, x1 = 0.7414
  viscosity: 98.7 ± 8.1 mPa·s
  mass density: 1044 ± 1.3 kg/m3
303.15 K, x1 = 0.8496
  viscosity: 168.66 ± 14 mPa·s
  mass density: 1073.9 ± 1.3 kg/m3
303.15 K, x1 = 0.9402
  viscosity: 267.65 ± 22 mPa·s
  mass density: 1098.4 ± 1.4 kg/m3
303.15 K, x1 = 1
  viscosity: 369.14 ± 31 mPa·s
  mass density: 1114.3 ± 1.4 kg/m3
308.15 K, x1 = 0.0818
  viscosity: 9.51 ± 0.76 mPa·s
  mass density: 845 ± 1.2 kg/m3
308.15 K, x1 = 0.1583
  viscosity: 10.86 ± 0.87 mPa·s
  mass density: 868.7 ± 1.2 kg/m3
308.15 K, x1 = 0.2414
  viscosity: 12.85 ± 1 mPa·s
  mass density: 894.2 ± 1.2 kg/m3
308.15 K, x1 = 0.3482
  viscosity: 16.03 ± 1.3 mPa·s
  mass density: 926.4 ± 1.2 kg/m3
308.15 K, x1 = 0.4414
  viscosity: 20.04 ± 1.6 mPa·s
  mass density: 954.2 ± 1.2 kg/m3
308.15 K, x1 = 0.5593
  viscosity: 28.44 ± 2.3 mPa·s
  mass density: 988.6 ± 1.2 kg/m3
308.15 K, x1 = 0.6481
  viscosity: 39.63 ± 3.2 mPa·s
  mass density: 1014.2 ± 1.2 kg/m3
308.15 K, x1 = 0.7414
  viscosity: 60.67 ± 4.9 mPa·s
  mass density: 1040.5 ± 1.3 kg/m3
308.15 K, x1 = 0.8496
  viscosity: 108.57 ± 8.9 mPa·s
  mass density: 1070.5 ± 1.3 kg/m3
308.15 K, x1 = 0.9402
  viscosity: 183.87 ± 15 mPa·s
  mass density: 1095.1 ± 1.4 kg/m3
308.15 K, x1 = 1
  viscosity: 257.59 ± 21 mPa·s
  mass density: 1111.1 ± 1.4 kg/m3
313.15 K, x1 = 0.0818
  viscosity: 7.41 ± 0.59 mPa·s
  mass density: 841.4 ± 1.2 kg/m3
313.15 K, x1 = 0.1583
  viscosity: 8.15 ± 0.65 mPa·s
  mass density: 865.1 ± 1.2 kg/m3
313.15 K, x1 = 0.2414
  viscosity: 8.97 ± 0.72 mPa·s
  mass density: 890.6 ± 1.2 kg/m3
313.15 K, x1 = 0.3482
  viscosity: 10.16 ± 0.82 mPa·s
  mass density: 922.8 ± 1.2 kg/m3
313.15 K, x1 = 0.4414
  viscosity: 11.94 ± 0.96 mPa·s
  mass density: 950.5 ± 1.2 kg/m3
313.15 K, x1 = 0.5593
  viscosity: 16.52 ± 1.3 mPa·s
  mass density: 984.9 ± 1.2 kg/m3
313.15 K, x1 = 0.6481
  viscosity: 23.5 ± 1.9 mPa·s
  mass density: 1010.5 ± 1.2 kg/m3
313.15 K, x1 = 0.7414
  viscosity: 35.97 ± 2.9 mPa·s
  mass density: 1036.9 ± 1.3 kg/m3
313.15 K, x1 = 0.8496
  viscosity: 67.47 ± 5.5 mPa·s
  mass density: 1067 ± 1.3 kg/m3
313.15 K, x1 = 0.9402
  viscosity: 123.98 ± 10 mPa·s
  mass density: 1091.7 ± 1.4 kg/m3
313.15 K, x1 = 1
  viscosity: 185.67 ± 15 mPa·s
  mass density: 1107.8 ± 1.4 kg/m3
318.15 K, x1 = 0.0818
  viscosity: 5.98 ± 0.48 mPa·s
  mass density: 837.9 ± 1.2 kg/m3
318.15 K, x1 = 0.1583
  viscosity: 6.21 ± 0.5 mPa·s
  mass density: 861.6 ± 1.2 kg/m3
318.15 K, x1 = 0.2414
  viscosity: 6.44 ± 0.52 mPa·s
  mass density: 887 ± 1.2 kg/m3
318.15 K, x1 = 0.3482
  viscosity: 7.1 ± 0.57 mPa·s
  mass density: 919.2 ± 1.2 kg/m3
318.15 K, x1 = 0.4414
  viscosity: 8.12 ± 0.65 mPa·s
  mass density: 946.9 ± 1.2 kg/m3
318.15 K, x1 = 0.5593
  viscosity: 9.93 ± 0.8 mPa·s
  mass density: 981.4 ± 1.2 kg/m3
318.15 K, x1 = 0.6481
  viscosity: 13.43 ± 1.1 mPa·s
  mass density: 1007 ± 1.2 kg/m3
318.15 K, x1 = 0.7414
  viscosity: 22.34 ± 1.8 mPa·s
  mass density: 1033.5 ± 1.3 kg/m3
318.15 K, x1 = 0.8496
  viscosity: 47.97 ± 3.9 mPa·s
  mass density: 1063.7 ± 1.3 kg/m3
318.15 K, x1 = 0.9402
  viscosity: 92.14 ± 7.6 mPa·s
  mass density: 1088.5 ± 1.4 kg/m3
318.15 K, x1 = 1
  viscosity: 140.18 ± 11 mPa·s
  mass density: 1104.7 ± 1.4 kg/m3
323.15 K, x1 = 0.0818
  viscosity: 4.95 ± 0.4 mPa·s
  mass density: 834.4 ± 1.2 kg/m3
323.15 K, x1 = 0.1583
  viscosity: 5.14 ± 0.41 mPa·s
  mass density: 858 ± 1.2 kg/m3
323.15 K, x1 = 0.2414
  viscosity: 5.28 ± 0.42 mPa·s
  mass density: 883.4 ± 1.2 kg/m3
323.15 K, x1 = 0.3482
  viscosity: 5.6 ± 0.45 mPa·s
  mass density: 915.6 ± 1.2 kg/m3
323.15 K, x1 = 0.4414
  viscosity: 6.07 ± 0.49 mPa·s
  mass density: 943.3 ± 1.2 kg/m3
323.15 K, x1 = 0.5593
  viscosity: 7.03 ± 0.57 mPa·s
  mass density: 977.8 ± 1.2 kg/m3
323.15 K, x1 = 0.6481
  viscosity: 9.04 ± 0.73 mPa·s
  mass density: 1003.5 ± 1.2 kg/m3
323.15 K, x1 = 0.7414
  viscosity: 15.67 ± 1.3 mPa·s
  mass density: 1030 ± 1.3 kg/m3
323.15 K, x1 = 0.8496
  viscosity: 36.3 ± 3 mPa·s
  mass density: 1060.4 ± 1.3 kg/m3
323.15 K, x1 = 0.9402
  viscosity: 73.7 ± 6 mPa·s
  mass density: 1085.3 ± 1.4 kg/m3
323.15 K, x1 = 1
  viscosity: 110.94 ± 9 mPa·s
  mass density: 1101.6 ± 1.4 kg/m3
